The source of these data is patent US9295673B2, “Combination of mTOR inhibitors and P13-kinase inhibitors, and uses thereof” (Intellikine LLC, priority 2011, dated 2016).

Molecules are shown by their SMILES. Read-outs that look alike come from different tables or passages of the source.

For one assay, the target named is PI3K α (Homo sapiens, UniProt P42336). Nature of the assay: PI 3-Kinase (human) HTRF assay, PI3K α. A general note: Time-resolved FRET reads energy transfer from a long-lived donor to a nearby acceptor.
Sequence of PI3K α (P42336 whole entry): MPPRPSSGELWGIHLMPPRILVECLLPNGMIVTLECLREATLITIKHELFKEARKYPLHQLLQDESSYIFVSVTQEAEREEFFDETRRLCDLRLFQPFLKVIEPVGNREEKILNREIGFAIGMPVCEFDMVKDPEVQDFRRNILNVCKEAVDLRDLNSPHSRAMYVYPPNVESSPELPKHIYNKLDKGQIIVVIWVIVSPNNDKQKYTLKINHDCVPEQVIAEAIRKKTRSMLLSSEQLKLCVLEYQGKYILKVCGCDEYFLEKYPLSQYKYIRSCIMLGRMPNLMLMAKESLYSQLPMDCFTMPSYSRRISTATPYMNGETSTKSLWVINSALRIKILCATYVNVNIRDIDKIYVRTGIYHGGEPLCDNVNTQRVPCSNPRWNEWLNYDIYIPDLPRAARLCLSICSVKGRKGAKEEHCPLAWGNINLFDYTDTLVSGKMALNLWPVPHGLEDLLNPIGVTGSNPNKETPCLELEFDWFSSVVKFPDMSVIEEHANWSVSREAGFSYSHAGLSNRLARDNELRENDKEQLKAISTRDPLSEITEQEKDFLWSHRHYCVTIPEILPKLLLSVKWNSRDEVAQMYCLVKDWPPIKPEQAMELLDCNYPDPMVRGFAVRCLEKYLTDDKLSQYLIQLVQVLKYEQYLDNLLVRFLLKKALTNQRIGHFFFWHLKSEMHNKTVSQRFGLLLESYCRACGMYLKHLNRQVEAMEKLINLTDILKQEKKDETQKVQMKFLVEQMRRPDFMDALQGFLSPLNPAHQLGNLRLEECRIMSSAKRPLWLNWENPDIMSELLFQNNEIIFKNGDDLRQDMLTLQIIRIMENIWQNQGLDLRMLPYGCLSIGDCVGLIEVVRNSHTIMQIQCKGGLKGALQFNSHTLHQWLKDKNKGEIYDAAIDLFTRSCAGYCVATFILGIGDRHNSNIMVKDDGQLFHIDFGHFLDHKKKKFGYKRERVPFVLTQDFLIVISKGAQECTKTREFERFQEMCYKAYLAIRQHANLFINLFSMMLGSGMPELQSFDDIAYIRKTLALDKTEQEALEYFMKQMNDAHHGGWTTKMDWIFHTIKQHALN
Sequence of PI3K α (P27986 whole entry partner): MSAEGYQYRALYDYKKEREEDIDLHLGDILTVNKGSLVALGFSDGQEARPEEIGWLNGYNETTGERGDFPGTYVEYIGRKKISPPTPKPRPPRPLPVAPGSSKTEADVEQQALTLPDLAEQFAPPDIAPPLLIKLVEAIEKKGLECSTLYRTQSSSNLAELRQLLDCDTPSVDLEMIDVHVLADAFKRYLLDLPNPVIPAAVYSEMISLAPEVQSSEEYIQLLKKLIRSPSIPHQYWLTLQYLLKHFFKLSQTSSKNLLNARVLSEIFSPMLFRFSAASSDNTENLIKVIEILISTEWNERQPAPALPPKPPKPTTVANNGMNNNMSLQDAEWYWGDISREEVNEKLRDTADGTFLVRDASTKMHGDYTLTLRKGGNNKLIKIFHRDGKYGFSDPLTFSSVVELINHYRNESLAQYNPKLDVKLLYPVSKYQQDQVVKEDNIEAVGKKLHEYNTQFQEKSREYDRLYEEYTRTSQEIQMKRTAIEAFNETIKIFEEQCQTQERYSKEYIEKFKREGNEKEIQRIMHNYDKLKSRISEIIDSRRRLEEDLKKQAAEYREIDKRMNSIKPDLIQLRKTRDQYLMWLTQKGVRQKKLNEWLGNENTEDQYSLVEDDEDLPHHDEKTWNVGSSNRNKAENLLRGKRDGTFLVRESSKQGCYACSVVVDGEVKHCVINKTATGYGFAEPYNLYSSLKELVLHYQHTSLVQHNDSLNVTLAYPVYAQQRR
For another assay, the target named is PI3K β (Homo sapiens, UniProt P42338). The assay is described as follows: PI 3-Kinase (human) HTRF assay, PI3K β.
Sequence of PI3K β (P42338 whole entry): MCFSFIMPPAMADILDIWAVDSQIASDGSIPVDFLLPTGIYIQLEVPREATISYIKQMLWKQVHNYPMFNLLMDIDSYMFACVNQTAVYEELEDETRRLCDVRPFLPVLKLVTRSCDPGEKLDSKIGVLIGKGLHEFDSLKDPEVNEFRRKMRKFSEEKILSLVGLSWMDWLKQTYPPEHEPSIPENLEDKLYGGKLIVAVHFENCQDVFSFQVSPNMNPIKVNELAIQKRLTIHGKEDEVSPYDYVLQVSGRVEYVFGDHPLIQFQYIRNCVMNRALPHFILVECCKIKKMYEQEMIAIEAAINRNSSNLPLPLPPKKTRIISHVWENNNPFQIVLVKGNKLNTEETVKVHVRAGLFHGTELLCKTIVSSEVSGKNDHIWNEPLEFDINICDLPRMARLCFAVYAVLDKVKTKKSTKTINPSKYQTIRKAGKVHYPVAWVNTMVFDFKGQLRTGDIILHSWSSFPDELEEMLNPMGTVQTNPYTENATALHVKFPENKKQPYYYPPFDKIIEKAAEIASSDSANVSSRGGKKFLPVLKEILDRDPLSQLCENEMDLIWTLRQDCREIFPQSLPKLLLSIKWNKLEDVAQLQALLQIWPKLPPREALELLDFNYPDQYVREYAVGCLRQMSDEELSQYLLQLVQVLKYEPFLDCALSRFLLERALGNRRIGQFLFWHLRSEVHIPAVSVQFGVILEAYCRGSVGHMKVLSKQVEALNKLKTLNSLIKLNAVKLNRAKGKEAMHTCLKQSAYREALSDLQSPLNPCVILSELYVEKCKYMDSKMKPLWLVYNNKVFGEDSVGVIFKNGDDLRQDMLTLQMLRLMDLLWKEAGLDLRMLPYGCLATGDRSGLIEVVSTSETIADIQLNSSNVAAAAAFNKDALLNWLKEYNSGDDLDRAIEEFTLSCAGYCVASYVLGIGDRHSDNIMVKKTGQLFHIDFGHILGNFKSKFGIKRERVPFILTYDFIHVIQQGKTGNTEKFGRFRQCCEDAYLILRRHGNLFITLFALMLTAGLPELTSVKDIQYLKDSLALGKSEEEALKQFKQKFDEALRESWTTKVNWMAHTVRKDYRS
Sequence of PI3K β (P27986 whole entry partner): as the sequence (P27986 whole entry partner) above
Another assay has as its target PI3K γ (Homo sapiens, UniProt P48736). The assay is described as follows: PI 3-Kinase (human) HTRF assay, PI3K γ.
The target in the next assay is PI3K δ (Homo sapiens, UniProt O00329). Nature of the assay: PI 3-Kinase (human) HTRF assay, PI3K δ.
Sequence of PI3K δ (O00329 whole entry): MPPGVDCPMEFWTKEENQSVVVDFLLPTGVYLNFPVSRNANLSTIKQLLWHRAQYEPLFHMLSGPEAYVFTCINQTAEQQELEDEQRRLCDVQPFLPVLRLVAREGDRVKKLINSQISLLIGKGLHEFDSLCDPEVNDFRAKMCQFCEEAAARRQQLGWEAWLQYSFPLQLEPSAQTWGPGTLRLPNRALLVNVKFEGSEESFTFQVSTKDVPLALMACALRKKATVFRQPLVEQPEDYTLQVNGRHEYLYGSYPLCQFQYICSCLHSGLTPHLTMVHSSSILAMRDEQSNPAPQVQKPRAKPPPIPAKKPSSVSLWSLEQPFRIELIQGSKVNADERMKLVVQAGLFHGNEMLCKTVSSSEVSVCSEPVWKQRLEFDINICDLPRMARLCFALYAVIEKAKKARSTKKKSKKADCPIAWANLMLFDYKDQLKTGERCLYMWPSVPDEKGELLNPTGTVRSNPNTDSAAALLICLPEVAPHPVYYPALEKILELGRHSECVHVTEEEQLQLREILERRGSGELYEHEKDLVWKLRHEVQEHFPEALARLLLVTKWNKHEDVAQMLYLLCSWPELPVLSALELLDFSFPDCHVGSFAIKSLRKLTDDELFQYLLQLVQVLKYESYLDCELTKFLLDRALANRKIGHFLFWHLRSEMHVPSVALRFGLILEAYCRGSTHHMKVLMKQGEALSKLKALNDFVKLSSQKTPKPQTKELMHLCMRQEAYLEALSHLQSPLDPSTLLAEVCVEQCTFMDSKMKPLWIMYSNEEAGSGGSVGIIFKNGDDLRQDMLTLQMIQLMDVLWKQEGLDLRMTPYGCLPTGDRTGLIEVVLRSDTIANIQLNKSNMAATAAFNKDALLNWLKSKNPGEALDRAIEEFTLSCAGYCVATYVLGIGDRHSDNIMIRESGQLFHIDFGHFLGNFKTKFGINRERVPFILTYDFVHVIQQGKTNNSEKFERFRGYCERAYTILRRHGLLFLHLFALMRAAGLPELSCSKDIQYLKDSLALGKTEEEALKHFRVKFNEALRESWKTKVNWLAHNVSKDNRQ
Sequence of PI3K δ (P27986 whole entry partner): as the sequence (P27986 whole entry partner) above
Where [1] appears, read: read-out: PI3K α IC50, in vitro.
[2] abbreviates: read-out: PI3K β IC50, in vitro.
Where [3] appears, read: read-out: PI3K δ IC50, in vitro.

Sequence of PI3K γ (P48736 whole entry): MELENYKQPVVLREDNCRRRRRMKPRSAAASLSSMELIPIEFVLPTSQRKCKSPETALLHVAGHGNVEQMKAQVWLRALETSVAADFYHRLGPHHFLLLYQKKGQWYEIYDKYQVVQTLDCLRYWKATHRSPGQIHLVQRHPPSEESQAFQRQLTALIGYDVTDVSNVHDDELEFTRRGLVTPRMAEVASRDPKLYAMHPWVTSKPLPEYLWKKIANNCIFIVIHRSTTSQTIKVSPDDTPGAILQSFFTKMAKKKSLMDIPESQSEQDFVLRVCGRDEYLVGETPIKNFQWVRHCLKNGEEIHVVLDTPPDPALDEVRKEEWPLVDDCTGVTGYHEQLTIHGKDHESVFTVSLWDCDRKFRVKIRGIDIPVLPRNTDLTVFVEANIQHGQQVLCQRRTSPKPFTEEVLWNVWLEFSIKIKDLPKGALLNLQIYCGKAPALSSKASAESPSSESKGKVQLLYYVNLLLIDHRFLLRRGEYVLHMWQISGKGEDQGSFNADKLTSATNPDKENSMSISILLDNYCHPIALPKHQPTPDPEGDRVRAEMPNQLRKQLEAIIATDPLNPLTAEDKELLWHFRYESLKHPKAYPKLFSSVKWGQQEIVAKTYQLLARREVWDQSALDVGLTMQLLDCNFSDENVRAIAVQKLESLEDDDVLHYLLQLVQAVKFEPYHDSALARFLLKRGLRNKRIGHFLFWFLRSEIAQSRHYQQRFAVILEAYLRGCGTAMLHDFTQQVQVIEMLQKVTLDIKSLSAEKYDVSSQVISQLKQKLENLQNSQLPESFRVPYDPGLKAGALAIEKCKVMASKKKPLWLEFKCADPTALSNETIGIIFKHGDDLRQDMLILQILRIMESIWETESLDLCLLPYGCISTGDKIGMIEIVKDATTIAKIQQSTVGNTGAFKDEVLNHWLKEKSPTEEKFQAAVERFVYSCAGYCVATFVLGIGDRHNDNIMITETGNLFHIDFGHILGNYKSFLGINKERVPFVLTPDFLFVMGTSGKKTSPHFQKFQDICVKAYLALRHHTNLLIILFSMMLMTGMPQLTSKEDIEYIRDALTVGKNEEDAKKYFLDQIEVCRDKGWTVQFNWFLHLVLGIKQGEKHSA
Method for PI3K β: An exemplary system is PI 3-Kinase (human) HTRF™ Assay from Upstate. […] Briefly, the assay is a time resolved FRET assay that indirectly measures PIP3 product formed by the activity of a PI3-K. The kinase reaction is performed in a microtitre plate (e.g., a 384 well microtitre plate). The total reaction volume is approximately 20 ul per well. In the first step, each well receives 2 ul of test compound in 20% dimethylsulphoxide resulting in a 2% DMSO final concentration. […] The plate is sealed and incubated for 15 minutes at room temperature. […] The plate is sealed and incubated for 1 hour at room temperature. The reaction is stopped by adding 5 ul of Stop Solution per well and then 5 ul of Detection Mix is added per well. The plate is sealed, incubated for 1 hour at room temperature, and then read on an appropriate plate reader. Data is analyzed and IC50s are generated using GraphPad Prism 5.

Regarding `Nc1nsc2cc(-c3ccc4nccc(-c5ccncc5)c4c3)ccc12` [Compound 13], the concentration for half-maximal inhibition (IC50) (commonly the concentration that inhibits the measured activity by half) against PI3K α was under 0.1 µM; at PI3K β, under 1 µM; on PI3K γ it was under 1 µM; against PI3K δ, under 1 µM.
For `COC(=O)Nc1noc2ccc(-c3nn(C(C)C)c4ncnc(N)c34)cc12` [Compound 20], the IC50 at PI3K α and on PI3K δ was under 10 µM in each case.
Turning to `CN1CCC(Oc2ncnc3ccc(-c4ccc5oc(N)nc5c4)cc23)CC1` [Compound 34], the 50% inhibitory concentration (IC50) at PI3K γ (read-out: PI3K γ IC50) was under 0.1 µM.
For `Nc1nc2cc(-c3ccc4ncc(C(=O)N5CCOCC5)n4c3)ccc2o1` [Compound 54], the concentration for half-maximal inhibition (IC50) on PI3K α (read-out: PI3K α IC50) was under 0.1 µM.
For the molecule `Nc1nc2cc(-c3ccc4ncc(NC5CCC(O)CC5)nc4c3)ccc2o1` (stereo not shown) [Compound 128], the IC50 is under 0.1 µM at PI3K α (read-out: PI3K α IC50), under 10 µM at PI3K β (read-out: PI3K β IC50), under 0.1 µM at PI3K γ (read-out: PI3K γ IC50) and under 0.1 µM on PI3K δ (read-out: PI3K δ IC50).
For `CC(=O)Nc1nc2ccc(-c3nc(N4CCOCC4)c4sc(CN5CCN(S(C)(=O)=O)CC5)cc4n3)cc2s1` [Compound 130], the IC50 on PI3K α (read-out: PI3K α IC50), on PI3K β (read-out: PI3K β IC50), at PI3K γ (read-out: PI3K γ IC50) and on PI3K δ (read-out: PI3K δ IC50) was over 10 µM each time.
As to `CC(N)C(=O)N1CCN(c2cnc3ccc(-c4ccc5oc(N)nc5c4)cc3n2)CC1` (stereo not shown) [Compound 134], on PI3K γ (read-out: PI3K γ IC50), the IC50 was under 10 µM.
For the molecule `CCN1CCN(C(=O)c2cnc3ncc(-c4ccc5oc(N)nc5c4)cn23)CC1` [Compound 141], the half-maximal inhibitory concentration (IC50) was under 1 µM on PI3K α, over 10 µM against PI3K β, under 10 µM at PI3K γ and over 10 µM against PI3K δ.
Regarding `Nc1nc2cc(-c3ccc4ncc(C(=O)N5CCN(CC6CC6)CC5)n4c3)ccc2o1` [Compound 161], the IC50 on PI3K α (read-out: PI3K α IC50) was under 1 µM; at PI3K β (read-out: PI3K β IC50), under 10 µM; at PI3K γ (read-out: PI3K γ IC50), under 10 µM; at PI3K δ (read-out: PI3K δ IC50), under 10 µM.
As for `NC(=O)[C@H]1CCCN1C(=O)c1cnc2ccc(-c3ccc4oc(N)nc4c3)cn12` [Compound 260], on PI3K γ (read-out: PI3K γ IC50), the IC50 is under 10 µM.
`CC(C)[C@H](N)C(=O)N1CCN(c2cnc3ccc(-c4ccc5oc(N)nc5c4)cc3n2)CC1` [Compound 269]: the IC50 on PI3K α (read-out: PI3K α IC50) is under 0.1 µM; on PI3K β (read-out: PI3K β IC50), under 1 µM; on PI3K δ (read-out: PI3K δ IC50) it was under 1 µM.
On to `Cc1ccc(NC(=O)c2cnc3ccc(-c4ccc5oc(N)nc5c4)cn23)cn1` [Compound 294], for which the 50% inhibitory concentration (IC50) was under 0.1 µM on PI3K α (read-out: PI3K α IC50), over 10 µM at PI3K β (read-out: PI3K β IC50), under 0.1 µM at PI3K γ (read-out: PI3K γ IC50) and under 10 µM at PI3K δ (read-out: PI3K δ IC50).
On to `CN1CCN(CCNC(=O)c2cnc3ccc(-c4ccc5oc(N)nc5c4)cn23)CC1` [Compound 306], for which the IC50 on PI3K α (read-out: PI3K α IC50) is under 0.1 µM; at PI3K β (read-out: PI3K β IC50) it was under 1 µM; at PI3K δ (read-out: PI3K δ IC50), under 1 µM.
Turning to `C[C@H]1CN(c2cnc3ccc(-c4ccc5oc(N)nc5c4)cc3n2)CCN1C` [Compound 332], the IC50 at PI3K α (read-out: PI3K α IC50) is under 1 µM; on PI3K β (read-out: PI3K β IC50), under 0.1 µM; on PI3K δ (read-out: PI3K δ IC50) it was under 10 µM.
Turning to `C[C@H]1CN(c2cnc3ccc(-c4ccc5oc(N)nc5c4)cc3n2)CCN1` [Compound 396], the IC50 is under 10 µM against PI3K γ and over 10 µM on PI3K δ.
In the case of `C[C@H]1CN(c2cnc3scc(-c4ccc5oc(N)nc5c4)c3n2)CCN1` [Compound 399], the IC50 against PI3K α, on PI3K β, on PI3K γ and against PI3K δ was over 10 µM throughout.
For the molecule `O=C(c1cnc2ccc(-c3ccc(Cl)c(NS(=O)(=O)c4ccc(F)cc4F)c3)cn12)N1CCOCC1` [Compound 461], the results for the IC50 at PI3K α (setting [1]), on PI3K β (setting [2]) and at PI3K δ (setting [3]) were under 1 µM, under 10 µM and under 10 µM, respectively.
With `[2H]C1([2H])OC([2H])([2H])C([2H])([2H])N(C(=O)c2cnc3ccc(-c4ccc5oc(N)nc5c4)cn23)C1([2H])[2H]` [Compound 529], the IC50 on PI3K α (setting [1]) was under 1 µM; at PI3K β (setting [2]), over 10 µM; on PI3K δ (setting [3]), over 10 µM.
On to `[2H]c1c(-c2ccc3ncc(C(=O)N4CCOCC4)n3c2)c([2H])c2nc(N)oc2c1[2H]` [Compound 531], for which the results for the 50% inhibitory concentration (IC50) at PI3K α (setting [1]), at PI3K β (setting [2]) and on PI3K δ (setting [3]) were under 0.1 µM, under 10 µM and over 10 µM, respectively.
As to `O=C(c1cnc2ccc(-c3cnc4cc[nH]c4c3)cn12)N1CCOCC1` [Compound 534], at PI3K α (setting [1]), the IC50 is under 10 µM.
On the same count and under the same terms, next, `Cc1ncc(-c2ccc3ncc(C(=O)N4CCOCC4)n3c2)c2cc[nH]c12` [Compound 536]: under 10 µM.
`Cn1ncc2c(-c3ccc4ncc(C(=O)N5CCOCC5)n4c3)cncc21` [Compound 537]: the IC50 was under 10 µM at PI3K α (setting [1]) and under 10 µM at PI3K γ (read-out: PI3K γ IC50, in vitro).
As for `Nc1nc2cc(-c3ccc4ncc(C(=O)NCCOCCO)n4c3)ccc2o1` [Compound 550], the concentration for half-maximal inhibition (IC50) on PI3K α and at PI3K γ was under 1 µM throughout.
Turning to `C[C@H]1CN(c2cnc3ccc(-c4ccc5oc(N)nc5c4)nc3n2)CCN1` [Compound 552], the IC50 at PI3K γ (read-out: PI3K γ IC50, Table 4) was under 10 µM; on PI3K δ (read-out: PI3K δ IC50, Table 4), under 10 µM.
For the molecule `CN1CCN(c2cnc3ccc(-c4ccc5oc(N)nc5c4)nc3n2)CC1` [Compound 555], the IC50 at PI3K γ (read-out: PI3K γ IC50, Table 4) was under 10 µM; at PI3K δ (read-out: PI3K δ IC50), under 10 µM.
